{"source": "patent US20250314644A1", "about": "“METHODS COMPRISING DETECTION OF ADP-HEPTOSE” (CHILDREN'S HOSPITAL MEDICAL CENTER, priority 2023, published 2025)", "key": {"NF-κB in THP1 cells": {"system": "NF-κB in THP1 cells", "test": "NF-κB signaling (immunoblot) and THP1-Blue NF-kB SEAP reporter", "assay_type": "cell-based, human", "protocol": "Protein concentration was evaluated by bicinchoninic acid (BCA) assay (Pierce, Cat #23225). SDS sample buffer was added to the lysates and the proteins were separated by SDS-polyacrylamide gel electrophoresis, transferred to PVDF or nitrocellulose membranes (BIO-RAD, Cat #1620112), and analyzed by immunoblotting. […] Membranes were visualized using ECL Western Blotting Substrate (Pierce, #32106) or SuperSignal West Femto Substrate (Thermo Scientific, #34096), imaged on a BIO-RAD ChemiDoc Touch Imaging system and analyzed with Image lab software 6.0.1 (Biorad) or Image J (22930834).\nTHP1-Blue NF-kB SEAP reporter cells (Cat no. thp-nkfb, Invivogen) were grown at 20,000 cells per well (200 μl) in a 96-well plate with the indicated agonists and inhibitors for 24 hours. […] The absorbance was read at 630 nm for a final readout. For analysis, media absorbance was subtracted, experimental values were normalized to vehicle control, and triplicates were averaged."}, "[1]": {"system": "Dnmt3a^−/− HSCs relative to WT HSCs", "test": "In vitro HSC competition assay", "assay_type": "cell-based, mouse", "details": "co-culture, ADP-heptose for 14 days", "description": "The polyvinyl alcohol-based in vitro HSC expansion protocol was adapted as previously described. (Wilkinson, A. C., et al. Long-term ex vivo haematopoietic-stem-cell expansion allows nonconditioned transplantation. Nature 571, 117-121 (2019) and Wilkinson, A. C., Ishida, R., Nakauchi, H. & Yamazaki, S. Long-term ex vivo expansion of mouse hematopoietic stem cells. Nat Protoc 15, 628-648 (2020).) 50 HSCs from WT-GFP (C57BL/6-Tg(UBC-GFP)30Scha/J, Cat no. 004353, Jackson Labs) and 50 HSCs from Dnmt3a^−/− mice were sorted directly into each well of a fibronectin-coated 96-well plate (Cat no. 08-774-60, Fisher Scientific) with Ham's F12 nutrient mix media (Cat no. 11765054, Thermo Fisher Scientific) containing final concentrations of 1× penicillin-streptomycin-glutamine (Cat no. 10378-016, Thermo Fisher Scientific), 10 mM HEPES (Cat no. 15630080, Thermo Fisher Scientific), 1× insulin-transferrin-selenium-ethanolamine (ITS-X, Cat no. 51500056, Thermo Fisher Scientific), 100 ng/mL recombinant murine TPO (Cat no. […] After 14 days of ADP-heptose treatment, cells were harvested, counted by trypan blue exclusion assay, and analyzed by flow cytometry. To enumerate cells, a defined number of CountBright Absolute Counting Beads (Thermo Fisher Scientific, Cat no. C36950) were added to each sample and cell count was back calculated to the proportion of the total that were run through the cytometer."}}, "data": [{"smiles": "Nc1ncnc2c1ncn2[C@@H]1O[C@H](COP(=O)(O)OP(=O)(O)O[C@@H]2O[C@H]([C@H](O)CO)[C@@H](O)[C@H](O)[C@@H]2O)[C@@H](O)[C@H]1O", "note": "[ADP-heptose, ADP-D-glycero-β-D-manno-heptose]", "values": [{"measurement": "NF-kB activation", "setting": "NF-κB in THP1 cells; TIFA-deficient THP1 cells", "value": "unable to activate NF-kB"}, {"measurement": "canonical NF-κB signaling and transcriptional activation", "setting": "NF-κB in THP1 cells; human leukemic cells (THP1)", "value": "induce canonical NF-κB signaling and transcriptional activation"}, {"measurement": "in vitro competition of Dnmt3a^−/− HSCs relative to WT HSCs", "setting": "[1]", "value": "competitive advantage"}]}]}
